Laboratory results taken from patent EP0155104A2, “Free analyte assay” (priority 1984, dated 1985).
Several values for one entry are separate records, joined by “and”; a condition that tells them apart may be missing. Identical values can stand only once. Like-named read-outs stand apart in the source and are kept apart here.

Key:
[1] = test system: serum proteins; assay: Amerlex free T4 radioimmunoassay: Bo value with added blocking agent; format: binding
[2] = molecular target: thyroxine binding prealbumin (TBPA) (Homo sapiens, UniProt P02766); details: in body fluids; cited from earlier work
[3] = test system: natural protein binders; details: in body fluids; cited from earlier work
[4] = molecular target: T1, thyroxine binding globulin (TBG) (Homo sapiens, UniProt P05543); details: in body fluids; cited from earlier work
T1 sequence (P05543 21-415): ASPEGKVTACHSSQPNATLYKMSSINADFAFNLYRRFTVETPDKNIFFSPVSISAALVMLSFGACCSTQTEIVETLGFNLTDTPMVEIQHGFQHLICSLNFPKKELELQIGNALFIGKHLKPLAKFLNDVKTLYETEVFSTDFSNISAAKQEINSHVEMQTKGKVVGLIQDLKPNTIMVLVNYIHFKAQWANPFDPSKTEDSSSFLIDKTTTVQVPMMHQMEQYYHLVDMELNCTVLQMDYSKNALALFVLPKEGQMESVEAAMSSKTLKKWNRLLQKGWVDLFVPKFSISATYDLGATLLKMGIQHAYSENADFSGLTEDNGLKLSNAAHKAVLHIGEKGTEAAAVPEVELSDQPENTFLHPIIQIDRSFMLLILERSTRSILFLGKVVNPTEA

[5] = molecular target: albumin (Alb) (Homo sapiens, UniProt P02768); details: cited from earlier work
[6] = blocking agent 10^-2 M, no addition: 67.7
[7] = blocking agent 10^-3 M, no addition: 67.7

albumin (Alb), sequence (P02768 25-609): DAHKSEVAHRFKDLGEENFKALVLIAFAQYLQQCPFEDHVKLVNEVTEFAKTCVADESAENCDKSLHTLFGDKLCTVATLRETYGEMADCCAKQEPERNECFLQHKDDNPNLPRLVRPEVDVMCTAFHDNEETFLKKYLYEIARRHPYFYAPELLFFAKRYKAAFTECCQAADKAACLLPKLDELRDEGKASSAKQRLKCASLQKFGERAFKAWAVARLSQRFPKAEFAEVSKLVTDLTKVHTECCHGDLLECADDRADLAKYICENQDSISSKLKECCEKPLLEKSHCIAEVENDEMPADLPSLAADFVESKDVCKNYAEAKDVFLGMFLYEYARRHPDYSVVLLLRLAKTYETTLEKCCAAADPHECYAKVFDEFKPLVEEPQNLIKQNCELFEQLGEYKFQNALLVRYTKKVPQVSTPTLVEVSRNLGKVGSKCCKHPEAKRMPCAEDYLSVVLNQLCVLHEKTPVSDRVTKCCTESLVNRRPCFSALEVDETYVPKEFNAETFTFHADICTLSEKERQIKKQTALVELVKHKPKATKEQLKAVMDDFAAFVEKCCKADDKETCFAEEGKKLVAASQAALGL

Compound: O=C(O)c1c(O)cccc1O [Gamma resorcylate, sodium gamma-resorcylate (2,6-dihydroxybenzoate)]
- Bo (% tracer bound) [1, 6]: 51.6%
- Bo (% tracer bound) [1, 7]: 70.3%

Compound: O=C(O)c1cc(S(=O)(=O)O)ccc1O [SSA, 5-sulphosalicylic acid]
- Bo (% tracer bound) ([1]; SSA 1x10^-2 M, no SSA: 65): 82.5%
- Bo (% tracer bound) ([1]; SSA 1x10^-3 M, no SSA: 65): 74%
- Bo (% tracer bound) ([1]; SSA 2x10^-2 M, T4-analogue tracer bound to antiserum at zero T4, no SSA: 65): 82%
- Bo (% tracer bound) ([1]; SSA 2x10^-3 M, no SSA: 65): 80%
- Bo (% tracer bound) ([1]; SSA 2x10^-4 M, no SSA: 65): 68%
- Bo (% tracer bound) ([1]; SSA 5x10^-3 M, no SSA: 65): 78%
- Bo (% tracer bound) ([1]; SSA 5x10^-4 M, no SSA: 65): 72%
- Bo (% tracer bound) ([1]; SSA 5x10^-5 M, no SSA: 65): 66%

Compound: O=[N+]([O-])c1ccc(O)c([N+](=O)[O-])c1 [2,4-dinitrophenol]
- Bo (% tracer bound) [1, 7]: 60.0%

Compound: NC(=O)c1ccccc1O [Salicylamide, salicylamide]
- Bo (% tracer bound) [1, 6]: 43.0%
- Bo (% tracer bound) [1, 7]: 67.5%

Compound: O=C(O)c1cc(O)ccc1O [Gentisate, sodium gentisate (2,5-dihydroxybenzoate)]
- Bo (% tracer bound) [1, 6]: 71.8%
- Bo (% tracer bound) [1, 7]: 70.5%

Compound: N[C@@H](Cc1cc(I)c(Oc2ccc(O)c(I)c2)c(I)c1)C(=O)O [T3, Tri-iodothyronine]
- share of the bound fraction bound to TBPA [2]: 15%
- in free form [3]: 0.3%
- share of the bound fraction bound to TBG [4]: 60%
- share of the bound fraction bound to Alb [5]: 25%

Compound: O=C([O-])c1ccccc1O.[Na+] [Salicylate, sodium salicylate]
- Bo (% tracer bound) [1]: 72.6% and 69.5%

Compound: N[C@@H](Cc1cc(I)c(Oc2cc(I)c(O)c(I)c2)c(I)c1)C(=O)O [T4, Thyroxine]
- share of the bound fraction bound to TBPA [2]: 20%
- bound to natural protein binders [3]: 99.97%
- share of the bound fraction bound to TBG [4]: 70%
